Assay results published in ChEMBL document CHEMBL5096161, “Medulloblastoma drugs in development: Current leads, trials and drawbacks” (Eur J Med Chem, 2021).

Key:
[1] = Inhibition of Wnt/beta-catenin transactivation signalling in Wnt3a stimulated human HEK 293 STF cells harbouring TCF/LEF1 luciferase reporter gene assessed as reduction in luciferase activity by TOPFlash luciferase reporter assay; type: cell-based
[2] = Inhibition of hedgehog signalling in mouse Shh Light II cells assessed as luciferase activity; type: cell-based
[3] = molecular target: Casein kinase I isoform alpha (Homo sapiens, UniProt P48729); experiment: Binding affinity to CK1alpha (unknown origin) using casein as substrate by fluorescence based analysis
[4] = Antiproliferative activity against human UW228 cells assessed as inhibition of cell proliferation incubated for 72 hrs by MTS assay; type: functional, cell-based; settings: UW228, 72 h
Daoy [5] = experiment: Antiproliferative activity against human Daoy cells assessed as inhibition of cell proliferation incubated for 72 hrs by MTS assay; type: functional, cell-based
Daoy [6] = experiment: Antiproliferative activity against human Daoy cells assessed as reduction in cell viability by MTT assay; type: functional, cell-based
[7] = Antiproliferative activity against human Med1 cells assessed as reduction in cell viability; type: functional, cell-based
[8] = Antiproliferative activity against human Medulloblastoma cells expressing wild type SMO assessed as reduction in cell viability; type: functional, cell-based
[9] = Inhibition of hedgehog signalling in mouse Shh Light II cells co-transfected with Gli firefly and Renilla-luciferase assessed as reduction in SAG-induced Gli luciferase activity incubated for 24 hrs by dual luciferase reporter assay; type: cell-based
Protein smoothened [10] = molecular target: T1, Protein smoothened (Homo sapiens, UniProt Q99835); experiment: Binding affinity to human SMO (181 to 787 residues) expressed in human HEK293 cells assessed as radioactivity incubated for 2 hrs in presence of H3-labeled smo antagonist by ligand-displacement assay; type: cell-based
[11] = Inhibition of Shh-induced hedgehog signalling pathway in mouse MEF cells expressing Gli-Luc reporter gene assessed as reduction in Gli1 transcription activity incubated for 48 hrs in presence of recombinant mouse shh stimulation by Bright-Glo luciferase Assay
D283 Med = experiment: Antiproliferative activity against human D283 Med cells assessed as inhibition of cell proliferation incubated for 48 hrs by MTS assay; type: functional, cell-based
[12] = Inhibition of hedgehog signalling in mouse Shh Light II cells co-transfected with Gli firefly luciferase assessed as inhibition of Gli luciferase expression measured after 30 hrs by luciferase reporter assay; type: cell-based
[13] = Antiproliferative activity against human Medulloblastoma cells expressing MYC and wild type Gfi1 assessed as reduction in cell viability incubated for 48 hrs by Cell TiterGlo luminescent assay; type: functional, cell-based
Protein smoothened [14] = molecular target: T1, Protein smoothened; experiment: Inhibition of endogenous human Smo overexpressed in mouse C3H 10T1/2 cells cotransfected with Gli reporter gene assessed as Gli luciferase activity by dual luciferase assay; type: functional, cell-based
Protein smoothened [15] = molecular target: Protein smoothened (Mus musculus, UniProt P56726); experiment: Inhibition of endogenous mouse Smo overexpressed in mouse C3H 10T1/2 cells cotransfected with Gli reporter gene assessed as Gli luciferase activity by dual luciferase assay; type: functional, cell-based
[16] = Half life in CD-1 mouse plasma at 10 mg/kg, po administered as single dose; type: ADME, organism-based
[17] = Prodrug conversion in ICR mouse brain assessed as Cmax of PF403 metabolite at 10 mg/kg, po and measured after 5 mins by LC-MS/MS analysis; type: ADME, organism-based; design: dose 10 mg/kg, time 5 min, route po; settings: in vivo
[18] = Inhibition of hedgehog signalling in mouse Shh Light II cells transfected with Gli luciferase reporter gene assessed as Gli luciferase activity assessed as luciferase activity by luciferase assay; type: cell-based
[19] = Ratio of AUC in brain to plasma of C57BL/6 mouse at 2 mg/kg, po and measured after 24 hrs by LC/MS-MS analysis; type: ADME, organism-based; settings: read-out: Ratio AUC
[20] = Antiproliferative activity against neonatally irradiated Ptch1-/+ mouse medulloblastoma cells assessed as inhibition of cell proliferation; type: functional, cell-based; settings: light or radiation study
[21] = Inhibition of Hedgehog signaling in mouse NIH3T3 cells expressing GRE-Luc reporter gene assessed luciferase activity incubated for 48 hrs in presence of SAG by Bright-Glo luciferase assay; type: cell-based
[22] = Inhibition of hedge hog pathway in mouse Sufu-KO-LIGHT cells expressing firefly luciferase reporter gene assessed as inhibition of Gli transcription incubated for 16 hrs by Bright-Glo luciferase assay; type: cell-based

T1 sequence (Q99835 whole entry, the tested form may be a part): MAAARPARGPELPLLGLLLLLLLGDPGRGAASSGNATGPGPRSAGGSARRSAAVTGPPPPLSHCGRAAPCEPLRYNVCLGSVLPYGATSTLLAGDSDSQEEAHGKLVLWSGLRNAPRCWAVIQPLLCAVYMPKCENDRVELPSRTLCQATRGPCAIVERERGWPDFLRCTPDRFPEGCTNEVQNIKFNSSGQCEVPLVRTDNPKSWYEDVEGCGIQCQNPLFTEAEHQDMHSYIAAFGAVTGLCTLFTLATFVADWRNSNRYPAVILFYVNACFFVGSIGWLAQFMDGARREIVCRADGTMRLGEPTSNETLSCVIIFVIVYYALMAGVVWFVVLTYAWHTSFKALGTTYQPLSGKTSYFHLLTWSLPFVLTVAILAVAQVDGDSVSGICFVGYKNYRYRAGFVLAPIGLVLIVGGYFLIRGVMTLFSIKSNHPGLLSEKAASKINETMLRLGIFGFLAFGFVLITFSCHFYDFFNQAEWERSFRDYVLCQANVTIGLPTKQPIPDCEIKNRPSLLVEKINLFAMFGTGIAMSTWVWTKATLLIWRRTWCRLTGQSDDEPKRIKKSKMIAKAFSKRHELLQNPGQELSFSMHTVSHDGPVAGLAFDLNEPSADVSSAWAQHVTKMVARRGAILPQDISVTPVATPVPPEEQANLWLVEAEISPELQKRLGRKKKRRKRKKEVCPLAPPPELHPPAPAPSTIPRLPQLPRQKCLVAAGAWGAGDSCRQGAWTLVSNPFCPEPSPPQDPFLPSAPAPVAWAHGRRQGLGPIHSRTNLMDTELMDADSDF
Chain of Casein kinase I isoform alpha (P48729 whole entry, canonical isoform): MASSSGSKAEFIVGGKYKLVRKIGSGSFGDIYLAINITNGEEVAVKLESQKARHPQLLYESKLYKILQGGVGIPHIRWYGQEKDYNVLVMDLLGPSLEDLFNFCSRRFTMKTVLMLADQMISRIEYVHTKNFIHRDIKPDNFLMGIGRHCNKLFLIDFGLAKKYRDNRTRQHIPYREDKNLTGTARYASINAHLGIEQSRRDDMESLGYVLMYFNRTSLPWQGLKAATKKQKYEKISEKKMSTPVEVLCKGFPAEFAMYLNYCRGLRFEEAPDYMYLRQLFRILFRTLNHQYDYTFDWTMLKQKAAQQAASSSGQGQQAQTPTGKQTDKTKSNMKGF
Chain of Protein smoothened (Mus musculus, UniProt P56726) (P56726 whole entry): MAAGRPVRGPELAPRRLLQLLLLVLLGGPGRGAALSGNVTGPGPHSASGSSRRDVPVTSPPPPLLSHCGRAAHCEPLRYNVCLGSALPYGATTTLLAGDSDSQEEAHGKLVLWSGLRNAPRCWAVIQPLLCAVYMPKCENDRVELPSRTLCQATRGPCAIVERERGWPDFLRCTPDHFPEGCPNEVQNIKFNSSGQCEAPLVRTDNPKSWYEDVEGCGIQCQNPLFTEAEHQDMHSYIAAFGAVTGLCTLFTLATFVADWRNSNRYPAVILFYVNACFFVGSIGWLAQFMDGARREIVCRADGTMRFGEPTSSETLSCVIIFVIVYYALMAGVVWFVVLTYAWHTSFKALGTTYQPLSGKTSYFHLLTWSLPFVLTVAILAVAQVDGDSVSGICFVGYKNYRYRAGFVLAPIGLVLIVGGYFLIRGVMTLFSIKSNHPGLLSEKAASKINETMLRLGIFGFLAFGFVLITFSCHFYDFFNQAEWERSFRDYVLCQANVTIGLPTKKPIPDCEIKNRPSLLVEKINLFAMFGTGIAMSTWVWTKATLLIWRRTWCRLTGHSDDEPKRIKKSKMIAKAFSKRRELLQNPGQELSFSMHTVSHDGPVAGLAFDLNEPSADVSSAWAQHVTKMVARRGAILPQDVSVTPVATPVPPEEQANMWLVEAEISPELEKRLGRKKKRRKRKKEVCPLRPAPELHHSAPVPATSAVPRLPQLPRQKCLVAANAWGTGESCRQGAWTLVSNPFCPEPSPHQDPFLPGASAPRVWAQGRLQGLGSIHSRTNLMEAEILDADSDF

## Cc1cc(/C=C/c2ccc3cc(N(C)C)ccc3[n+]2C)c(C)n1-c1ccccc1
[1]
  IC50: 10 nM
[2]
  IC50: 10 nM
[3]
  Kd: 1 nM

## COc1ccc(Cn2c3ncnc4c(ncn4Cc4ccc(OC)cc4)c-3nc2=O)cc1
[4]
  IC50: 3500 nM
Daoy [5]
  IC50: 2500 nM

## COc1cc2c3c(c4ccc(O)cc4c2cc1OC)C[C@@H]1CCCN1C3
Daoy [6]
  IC50: 0.013 nM

## Cc1sc2c(c1C)C(c1ccc(Cl)cc1)=N[C@@H](CC(=O)OC(C)(C)C)c1nnc(C)n1-2
[7]
  IC50: 50 nM
[8]
  IC50: 50 nM

## COc1cc2c(cc1-c1c(C)noc1C)ncc1[nH]c(=O)n([C@H](C)c3ccccn3)c12
[9]
  IC50: 30 nM

## Cc1cnc(-c2cc(N3CCN(C(=O)CCS(C)(=O)=O)CC3)ncc2Cl)c(C)c1
Protein smoothened [10]
  IC50: 5.8 nM
[11]
  IC50: 2.7 nM

## Fc1ccc(CNc2ncnc3c2cnn3CC(Cl)c2ccc(Cl)cc2)cc1 (stereo not given)
D283 Med
  IC50: 4890 nM

## C[C@H](CO)N1C[C@H](C)[C@H](CN(C)S(=O)(=O)c2ccc(Cl)cc2Cl)Oc2c(NC(=O)C3CC3)cccc2C1=O
[12]
  IC50: 60 nM

## c1ccc([C@@H]2C[C@H]2NC2CCNCC2)cc1
[13]
  IC50: 0.05 nM

## C[C@@H]1CN(c2ccc(C(=O)Nc3ccc(Cl)c(NC(=O)c4cccc(Cl)c4)c3)cn2)C[C@H](C)N1
Protein smoothened [14]
  IC50: 8 nM
Protein smoothened [15]
  IC50: 27 nM
[16]
  half-life: 22 h

## COc1cc2c3c(c4ccc(OC(=O)C(C)(C)C)cc4c2cc1OC)C[C@@H]1CCCN1C3
[17]
  Cmax: 37.76 ng/mL

## Cn1c(-c2ccccc2C(F)(F)F)nnc1C12CCC(c3noc(C4CC(F)(F)C4)n3)(CC1)CC2
[18]
  IC50: 1500 nM
[19]
  Kp at 24 h: 0.6
[20]
  IC50: 300 nM

## Cc1cnc(-c2cc(N3CCc4nc(N5CCC(O)CC5)ncc4C3)ccc2Cl)c(C)c1
[21]
  IC50: 7.5 nM

## CCOc1ccc(-[n+]2cc(-c3ccc(Br)cc3)n3c2CCc2ccccc2-3)cc1
[22]
  IC50: 1420 nM

## C=CCn1c(=O)c2cnc(Nc3ccc(N4CCN(C)CC4)cc3)nc2n1-c1cccc(C(C)(C)O)n1 [ADAVOSERTIB]
[4]
  IC50: 232 nM
Daoy [5]
  IC50: 150 nM
